Experiments:
allergic asthma = assay: Classification in view of activity on treatment of allergic asthma; type: in vivo; details: first group most preferable, second more preferable, third preferable
[1] = tested on: passive cutaneous anaphylaxis; assay: Passive cutaneous anaphylaxis tests (PCA) on rats; type: in vivo, SLC-strain Wistar rat; details: intravenous, rat PCA; for inhibition in vivo at 0.3 mg/kg / inhibition in vivo at 3 mg/kg: read-out: Inhibition rate
Protocol: To test the effectiveness of compounds of this invention for treatment of allergic asthma, evaluation of antiallergy effect was carried out by passive cutaneous anaphylaxis tests (PCA) on rats.
Rats (SLC-strain Wistar rat) were immunized with egg albumin which had been recrystallized five times and Bodetella pertussis vaccine, and, after 13 days, serum was taken from these rats.
This serum was diluted to 1/128 and intradermally injected into the back of rats. 48 hours thereafter, the compounds of the invention as set forth in the following table in the form of salts thereof with tris (hydroxymethyl)methyl ammonium dissolved in saline in the indicated quantities as the salts were administered intravenously, and 5 minutes thereafter, saline in which egg albumin and Evans Blue were dissolved was challenged intravenously. After 30 minutes, the animals were killed and the skins were removed and the quantity of the Evans Blue which has leaked as a result of the antigen antibody reaction was extracted through the use of Na2 SO4 solution and acetone, colorimetry being carried out at 620 mμ.

[2] = 50% lethal dose (LD50), i.v., mouse; details: in vivo, iv
[3] = dose 0.3 mg/kg (quantity as the tris (hydroxymethyl) methyl ammonium salt)
[4] = dose 3 mg/kg (quantity as the tris (hydroxymethyl) methyl ammonium salt)

Row | Structure (SMILES) | preference group in view of activity on treatment of allergic asthma (allergic asthma) | inhibition in vivo at 0.3 mg/kg [1, 3] | inhibition in vivo at 3 mg/kg [1, 4] | also measured
1 | CCOC(=O)c1ccc2nc(O)c3c(=O)cc(C(=O)O)oc3c2c1 [Compound 9, 9-ethoxycarbonyl-5-hydroxy-quinolo[4,3-b]-pyran-4-one-2-carboxylic acid] | more preferable | 39% | 100% | –
2 | O=C(O)c1cc(=O)c2c(O)nc3ccc(Cl)cc3c2o1 [Compound 7, 9-chloro-5-hydroxy-quinolo[4,3-b]-pyran-4-one-2-carboxylic acid] | most preferable | 67% | 100% | –
3 | COc1cccc2c1nc(O)c1c(=O)cc(C(=O)O)oc12 [Compound 5, 7-methoxy-5-hydroxy-quinolo[4,3-b]-pyran-4-one-2-carboxylic acid] | – | 37% | 98% | –
4 | COc1ccc2c(c1)nc(O)c1c(=O)cc(C(=O)O)oc12 [Compound 15, 8-methoxy-5-hydroxy-quinolo[4,3-b]-pyran-4-one-2-carboxylic acid] | – | – | 90% | –
5 | O=C(O)c1cc(=O)c2c(O)nc3ccc(Br)cc3c2o1 [Compound 13, 9-bromo-5-hydroxy-quinolo[4,3-b]-pyran-4-one-2-carboxylic acid] | – | – | 90% | –
6 | Cc1ccc2c(nc(O)c3c(=O)cc(C(=O)O)oc32)c1C [Compound 1, 7,8-dimethyl-5-hydroxy-quinolo [4,3-b]-pyran-4-one-2-carboxylic acid] | most preferable | 98% | 100% | LD50 [2]: 560 mg/kg; selectivity ratio [2]: 20000
7 | Cc1cccc2c1nc(O)c1c(=O)cc(C(=O)O)oc12 [Compound 3, 7-methyl-5-hydroxy-quinolo [4,3-b]-pyran-4-one-2-carboxylic acid] | – | 27% | 100% | –
8 | CCc1ccc2nc(O)c3c(=O)cc(C(=O)O)oc3c2c1 [Compound 17, 9-ethyl-5-hydroxy-quinolo[4,3-b]-pyran-4-one-2-carboxylic acid] | – | – | 90% | –
9 | O=C(O)c1cc(=O)c2c(O)nc3ccc(OCc4ccccc4)cc3c2o1 [Compound 8, 9-benzyloxy-5-hydroxy-quinolo[4,3-b]-pyran-4-one-2-carboxylic acid] | more preferable | 34% | 96% | –
10 | O=C(O)c1cc(=O)c2c(O)nc3ccc(-c4ccccc4)cc3c2o1 [Compound 10, 9-phenyl-5-hydroxy-quinolo[4,3-b]-pyran-4-one-2-carboxylic acid] | preferable | – | 90% | –
11 | COc1ccc2nc(O)c3c(=O)cc(C(=O)O)oc3c2c1 [Compound 4, 9-methoxy-5-hydroxy-quinolo[4,3-b]-pyran-4-one-2-carboxylic acid] | – | 38% | 98% | –
12 | Cc1ccc2nc(O)c3c(=O)cc(C(=O)O)oc3c2c1 [Compound 2, 9-methyl-5-hydroxy-quinolo [4,3-b]-pyran-4-one-2-carboxylic acid] | most preferable | 63% | 100% | –
13 | CCCCc1ccc2nc(O)c3c(=O)cc(C(=O)O)oc3c2c1 [Compound 6, 9-n-butyl-5-hydroxy-quinolo[4,3-b]-pyran-4-one-2-carboxylic acid] | – | 26% | 94% | –
14 | Cc1c(Cl)ccc2c1nc(O)c1c(=O)cc(C(=O)O)oc12 [Compound 11, 7-methyl-8-chloro-5-hydroxy-quinolo[4,3-b]-pyran-4-one-2-carboxylic acid] | more preferable | – | – | Inhibition rate [1, 3]: 26%; Inhibition rate [1, 4]: 87%
15 | COc1cc2nc(O)c3c(=O)cc(C(=O)O)oc3c2cc1OC [Compound 16, 8,9-dimethoxy-5-hydroxy-quinolo[4,3-b]-pyran-4-one-2-carboxylic acid] | – | – | 90% | –
16 | O=C(O)c1cc(=O)c2c(O)nc3ccc(F)cc3c2o1 [Compound 14, 9-fluoro-5-hydroxy-quinolo[4,3-b]-pyran-4-one-2-carboxylic acid] | – | – | 90% | –
17 | Cc1cc(C)c2nc(O)c3c(=O)cc(C(=O)O)oc3c2c1 [Compound 12, 7,9-dimethyl-5-hydroxy-quinolo[4,3-b]-pyran-4-one-2-carboxylic acid] | – | – | 90% | –
